Measurements from the NIST ThermoML archive (doi:10.1021/acs.jced.6b00178).
± gives the expanded uncertainty stated by the source.

Test: xn = mol fraction of the nth substance listed
Details: 100 kPa, Liquid; for viscosity: Concentric cylinders viscometry; for mass density: Vibrating tube method

CCCCn1cc[n+](C)c1.COP(=O)([O-])OC [1-butyl-3-methyl-1H-imidazolium dimethylphosphate] + CCCC[n+]1ccn(C)c1.O=S(=O)([N-]S(=O)(=O)C(F)(F)F)C(F)(F)F
Details	mass density, x2 = 0 [kg/m3]	mass density, x2 = 0.25 [kg/m3]	mass density, x2 = 0.501 [kg/m3]	mass density, x2 = 0.747 [kg/m3]	viscosity, x2 = 0 [mPa·s]	viscosity, x2 = 0.25 [mPa·s]	viscosity, x2 = 0.501 [mPa·s]	viscosity, x2 = 0.747 [mPa·s]
283.15 K	1168.4 ± 1.2	1251 ± 1.1	1325.1 ± 1	1390.6 ± 0.9	2315.6 ± 160	1433.7 ± 94	630.61 ± 38	251.51 ± 14
288.15 K	1164.9 ± 1.2	1247 ± 1.1	1320.6 ± 1	1386 ± 0.9	1454.6 ± 96	930.25 ± 58	433.3 ± 25	183.6 ± 9.7
293.15 K	1161.4 ± 1.2	1243.1 ± 1.1	1316.2 ± 1	1381.5 ± 0.9	943.97 ± 59	618.01 ± 37	301.49 ± 17	137.3 ± 7.1
298.15 K	1157.9 ± 1.2	1239.1 ± 1.1	1312 ± 1	1377 ± 0.9	641.71 ± 38	432.55 ± 25	222.26 ± 12	104.86 ± 5.4
303.15 K	1154.3 ± 1.2	1235.2 ± 1.1	1307.8 ± 1	1372.5 ± 0.9	446.92 ± 26	307.85 ± 17	165.15 ± 8.7	81.71 ± 4.2
308.15 K	1150.9 ± 1.2	1231.4 ± 1.1	1303.7 ± 1	1368.1 ± 0.9	319.33 ± 18	224.53 ± 12	125.35 ± 6.5	64.81 ± 3.3
313.15 K	1147.6 ± 1.2	1227.7 ± 1.1	1299.7 ± 1	1363.6 ± 0.9	232.1 ± 13	166.25 ± 8.8	96.27 ± 4.9	52.46 ± 2.6
318.15 K	1144.3 ± 1.2	1224.1 ± 1.1	1295.6 ± 1	1359.2 ± 0.8	174.7 ± 9.3	127.53 ± 6.6	76.39 ± 3.9	42.72 ± 2.2
323.15 K	1141 ± 1.2	1220.4 ± 1.1	1291.6 ± 1	1354.8 ± 0.8	133.37 ± 7	98.92 ± 5.1	61.14 ± 3.1	35.4 ± 1.8
328.15 K	1137.8 ± 1.1	1216.8 ± 1.1	1287.6 ± 1	1350.4 ± 0.8	103.62 ± 5.4	78.04 ± 4	49.65 ± 2.5	29.69 ± 1.5
333.15 K	1134.6 ± 1.1	1213.2 ± 1.1	1283.5 ± 1	1346 ± 0.8	81.97 ± 4.2	62.7 ± 3.2	41.07 ± 2.1	25.42 ± 1.3
338.15 K	1131.4 ± 1.1	1209.7 ± 1.1	1279.5 ± 0.9	1341.7 ± 0.8	65.62 ± 3.4	50.83 ± 2.6	34.05 ± 1.7	21.56 ± 1.1
343.15 K	1128.3 ± 1.1	1206.1 ± 1	1275.6 ± 0.9	1337.4 ± 0.8	53.39 ± 2.7	41.87 ± 2.1	28.69 ± 1.5	18.63 ± 0.94
348.15 K	1125.1 ± 1.1	1202.5 ± 1	1271.6 ± 0.9	1333.1 ± 0.8	44.01 ± 2.2	34.9 ± 1.8	24.42 ± 1.2	16.23 ± 0.82
353.15 K	1122 ± 1.1	1199 ± 1	1267.7 ± 0.9	1328.8 ± 0.8	37.08 ± 1.9	29.8 ± 1.5	21.36 ± 1.1	14.57 ± 0.74
358.15 K	1118.9 ± 1.1	1195.5 ± 1	1263.7 ± 0.9	1324.6 ± 0.8	30.94 ± 1.6	25.03 ± 1.3	18.18 ± 0.92	12.61 ± 0.64
363.15 K	1115.7 ± 1.1	1192 ± 1	1259.9 ± 0.9	1320.4 ± 0.8	26.33 ± 1.3	21.5 ± 1.1	15.88 ± 0.8	11.22 ± 0.57

CC(=O)[O-].CCCCn1cc[n+](C)c1 [1-butyl-3-methylimidazolium acetate] + CCCC[n+]1ccn(C)c1.O=S(=O)([N-]S(=O)(=O)C(F)(F)F)C(F)(F)F
Details	mass density, x2 = 0 [kg/m3]	mass density, x2 = 0.25 [kg/m3]	mass density, x2 = 0.498 [kg/m3]	mass density, x2 = 0.749 [kg/m3]	viscosity, x2 = 0 [mPa·s]	viscosity, x2 = 0.25 [mPa·s]	viscosity, x2 = 0.498 [mPa·s]	viscosity, x2 = 0.749 [mPa·s]
283.15 K	1062.7 ± 1	1193.2 ± 1	1296.5 ± 1	1381.4 ± 0.9	1013.4 ± 64	577.38 ± 34	310.72 ± 17	175.1 ± 9.2
288.15 K	1059.4 ± 1	1189.4 ± 1	1292.2 ± 1	1376.8 ± 0.9	645.6 ± 39	385.58 ± 22	220.24 ± 12	129.87 ± 6.7
293.15 K	1056 ± 1	1185.6 ± 1	1288 ± 1	1372.3 ± 0.9	421.35 ± 24	265.43 ± 15	159.18 ± 8.4	101.85 ± 5.2
298.15 K	1052.8 ± 1	1181.9 ± 1	1283.8 ± 1	1367.8 ± 0.9	292.57 ± 16	189.58 ± 10	119.72 ± 6.2	76.32 ± 3.9
303.15 K	1049.7 ± 1	1178.3 ± 1	1279.7 ± 0.9	1363.3 ± 0.9	206.68 ± 11	138.72 ± 7.3	91.38 ± 4.7	60.27 ± 3
308.15 K	1046.6 ± 1	1174.7 ± 1	1275.7 ± 0.9	1358.8 ± 0.8	150.08 ± 7.9	104 ± 5.4	71.14 ± 3.6	48.44 ± 2.4
313.15 K	1043.5 ± 1	1171.1 ± 1	1271.6 ± 0.9	1354.3 ± 0.8	110.79 ± 5.8	79.57 ± 4.1	56.47 ± 2.9	40.34 ± 2
318.15 K	1040.5 ± 1	1167.5 ± 1	1267.5 ± 0.9	1349.9 ± 0.8	85.03 ± 4.4	62.28 ± 3.2	45.44 ± 2.3	32.7 ± 1.7
323.15 K	1037.5 ± 1	1163.9 ± 1	1263.5 ± 0.9	1345.4 ± 0.8	66.07 ± 3.4	49.57 ± 2.5	37.16 ± 1.9	27.36 ± 1.4
328.15 K	1034.5 ± 1	1160.3 ± 1	1259.4 ± 0.9	1341 ± 0.8	52.29 ± 2.7	40.09 ± 2	30.8 ± 1.6	23.18 ± 1.2
333.15 K	1031.5 ± 1	1156.8 ± 1	1255.4 ± 0.9	1336.6 ± 0.8	42.29 ± 2.2	33.14 ± 1.7	26.09 ± 1.3	20.11 ± 1
338.15 K	1028.5 ± 1	1153.2 ± 1	1251.4 ± 0.9	1332.3 ± 0.8	34.38 ± 1.8	27.38 ± 1.4	21.93 ± 1.1	17.14 ± 0.87
343.15 K	1025.6 ± 1	1149.7 ± 1	1247.5 ± 0.9	1327.9 ± 0.8	28.48 ± 1.5	23.05 ± 1.2	18.79 ± 0.95	14.96 ± 0.76
348.15 K	1022.6 ± 1	1146.1 ± 1	1243.5 ± 0.9	1323.6 ± 0.8	23.88 ± 1.2	19.63 ± 1	16.25 ± 0.82	13.13 ± 0.66
353.15 K	1019.7 ± 0.9	1142.6 ± 1	1239.6 ± 0.9	1319.4 ± 0.8	20.63 ± 1.1	17.21 ± 0.88	14.49 ± 0.73	11.89 ± 0.6
358.15 K	1016.7 ± 0.9	1139.1 ± 1	1235.7 ± 0.9	1315.1 ± 0.8	17.35 ± 0.89	14.64 ± 0.74	12.45 ± 0.63	10.35 ± 0.52
363.15 K	1013.9 ± 0.9	1135.6 ± 1	1231.8 ± 0.9	1310.9 ± 0.8	15 ± 0.77	12.81 ± 0.65	11.02 ± 0.56	9.272 ± 0.47
